# Test results taken from patent publication US20020031795A1, “Nitrocoumarins for detecting all micro-organisms” (priority 1998, published 2002).
# Entries after “also recorded” stand apart in the source; their conditions may differ.
# Test system: Escherichia coli (NCTC 10418)
# Experiment: Growth of E. coli in Mueller-Hinton broth in the presence of nitrocoumarins (optical density 690 nm)
# Assay type: cell-based
# Description: A sample of the 7-nitrocoumarin derivative is dissolved in 4 ml of hot, distilled water. The mass dissolved to make the stock solution is such that the final concentration of the compound in the assay is 0.105 mmol/l. This solution is added to 96 ml of Mueller-Hinton broth and the mixture is sterile-filtered.
# The E. coli was grown for 24 hours at 35° C. on Columbia agar supplemented with sheep blood. The bacteria were then resuspended in sterile, distilled water and their density was adjusted to 0.5 on the MacFarland scale (i.e. about 10^8 cells/ml). This suspension was then diluted 100-fold in sterile Mueller-Hinton broth (i.e. to a final density of about 10^6 cells/ml).
# Fifty microliters of each nitrocoumarin solution plus 50 μl of bacterial suspension were then added to the wells of a microtiter plate. The plates were incubated at 35° C. and the optical density and fluorescence of each well was read every 30 min for a total of 4 hours. Optical density (690 nm) readings were made using an Anthos 2001 spectrophotometer (Labtech International Limited), and fluorescence (excitation at 365 nm and emission at 440 nm) readings were made on a Biolite F1 2001 fluorometer (Labtech International Limited).
# The effect of the concentration of 7-nitrocoumarin-3-carboxylic acid on the sensitivity of the assay to detect E. coli (NCTC strain 10418) was investigated at concentrations of the indicator ranging from 0 to 0.262 mmol/l. All other conditions were identical to those described in section A above.
smiles,measurement,setting,value
O=C(O)c1cc2ccc([N+](=O)[O-])cc2oc1=O [7-nitrocoumarin-3-carboxylic acid],Optical density (690 nm),"0.005 mmol/l, 0 min",0.000
same,Optical density (690 nm),"0.005 mmol/l, 30 min",0.000
same,Optical density (690 nm),"0.005 mmol/l, 60 min",0.003
same,Optical density (690 nm),"0.005 mmol/l, 90 min",0.011
same,Optical density (690 nm),"0.005 mmol/l, 120 min",0.034
same,Optical density (690 nm),"0.005 mmol/l, 150 min",0.090
same,Optical density (690 nm),"0.005 mmol/l, 180 min",0.155
same,Optical density (690 nm),"0.005 mmol/l, 210 min",0.246
same,Optical density (690 nm),"0.005 mmol/l, 240 min",0.411
same,Optical density (690 nm),"0.013 mmol/l, 0 min",0.000
same,Optical density (690 nm),"0.013 mmol/l, 30 min",0.000
same,Optical density (690 nm),"0.013 mmol/l, 60 min",0.003
same,Optical density (690 nm),"0.013 mmol/l, 90 min",0.011
same,Optical density (690 nm),"0.013 mmol/l, 120 min",0.032
same,Optical density (690 nm),"0.013 mmol/l, 150 min",0.088
same,Optical density (690 nm),"0.013 mmol/l, 180 min",0.149
same,Optical density (690 nm),"0.013 mmol/l, 210 min",0.233
same,Optical density (690 nm),"0.013 mmol/l, 240 min",0.371
same,Optical density (690 nm),"0.026 mmol/l, 0 min",0.000
same,Optical density (690 nm),"0.026 mmol/l, 30 min",0.001
same,Optical density (690 nm),"0.026 mmol/l, 60 min",0.004
same,Optical density (690 nm),"0.026 mmol/l, 90 min",0.011
same,Optical density (690 nm),"0.026 mmol/l, 120 min",0.032
same,Optical density (690 nm),"0.026 mmol/l, 150 min",0.079
same,Optical density (690 nm),"0.026 mmol/l, 180 min",0.201
same,Optical density (690 nm),"0.026 mmol/l, 210 min",0.290
same,Optical density (690 nm),"0.026 mmol/l, 240 min",0.436
same,Optical density (690 nm),"0.052 mmol/l, 0 min",0.000
same,Optical density (690 nm),"0.052 mmol/l, 30 min",0.001
same,Optical density (690 nm),"0.052 mmol/l, 60 min",0.003
same,Optical density (690 nm),"0.052 mmol/l, 90 min",0.011
same,Optical density (690 nm),"0.052 mmol/l, 120 min",0.031
same,Optical density (690 nm),"0.052 mmol/l, 150 min",0.082
same,Optical density (690 nm),"0.052 mmol/l, 180 min",0.153
same,Optical density (690 nm),"0.052 mmol/l, 210 min",0.225
same,Optical density (690 nm),"0.052 mmol/l, 240 min",0.408
same,Inhibitory effect on the growth of E. coli (in words),0.105 mmol/l,no retarded growth; also recorded: does not inhibit E. coli growth
same,Optical density (690 nm),"0.105 mmol/l, 0 min",0.000
same,Optical density (690 nm),"0.105 mmol/l, 30 min",0.000
same,Optical density (690 nm),"0.105 mmol/l, 60 min",0.002
same,Optical density (690 nm),"0.105 mmol/l, 90 min",0.008
same,Optical density (690 nm),"0.105 mmol/l, 120 min",0.026
same,Optical density (690 nm),"0.105 mmol/l, 150 min",0.068
same,Optical density (690 nm),"0.105 mmol/l, 180 min",0.164
same,Optical density (690 nm),"0.105 mmol/l, 210 min",0.227
same,Optical density (690 nm),"0.105 mmol/l, 240 min",0.416
same,Optical density (690 nm),"0.157 mmol/l, 0 min",0.000
same,Optical density (690 nm),"0.157 mmol/l, 30 min",−0.001
same,Optical density (690 nm),"0.157 mmol/l, 60 min",0.002
same,Optical density (690 nm),"0.157 mmol/l, 90 min",0.009
same,Optical density (690 nm),"0.157 mmol/l, 120 min",0.027
same,Optical density (690 nm),"0.157 mmol/l, 150 min",0.073
same,Optical density (690 nm),"0.157 mmol/l, 180 min",0.151
same,Optical density (690 nm),"0.157 mmol/l, 210 min",0205
same,Optical density (690 nm),"0.157 mmol/l, 240 min",0.372
same,Optical density (690 nm),"0.210 mmol/l, 0 min",0.000
same,Optical density (690 nm),"0.210 mmol/l, 30 min",0.000
same,Optical density (690 nm),"0.210 mmol/l, 60 min",0.003
same,Optical density (690 nm),"0.210 mmol/l, 90 min",0.010
